Holding throughout (assay): Antibacterial activity (MIC), agar dilution
What all share (assay type): cell-based
Background: Agar dilution tests growth on a series of plates holding different concentrations.

For one experiment, the system named is Aci. antitratus A-6. Particulars: 20 h, Aci. antitratus A-6; 10^6 cells per ml; 37° C., 20 hours; read-out: MIC. An excerpt: (§1) The amount of bacteria inoculated was 10^4 cells per plate (10^6 cells per ml).
The next experiment has as its system E. coli NIHJ JC-2. To be noted: Escherichia coli, NIHJJC2, 20 h.
Description: as §1

For another experiment, the system named is E. coli TK-111. To be noted: Escherichia coli, TK111, 20 h, E. coli TK-111; 10^6 cells per ml; 37° C., 20 hours; read-out: MIC.
Description: as §1

Another experiment has as its system Ent. cloacae IID977. Particulars: Enterobacter cloacae, IID977, 20 h, Ent. cloacae IID977; 10^6 cells per ml; 37° C., 20 hours; read-out: MIC.
Description: as §1

The next experiment concerns Kl. pneumoniae Y-41. Particulars: Klebsiella pneumoniae, Y41, 10^6 cells per ml, 37° C., 20 hours, read-out: MIC.
Description: as §1

A further experiment deals with Kl. pneumoniae Y-50. To be noted: Klebsiella pneumoniae, Y50, 20 h, 10^6 cells per ml, 37° C., read-out: MIC.
Description: as §1

In another experiment the test system is Pro. mirabilis T-111. To be noted: Proteus mirabilis, 37° C.
Description: as §1

Another experiment relates to Pro. morganii T-216. Particulars: Morganella morganii, 37° C.
Description: as §1

For another experiment, the system named is Pro. vulgaris GN3027. Particulars: Proteus vulgaris, GN3027, 20 h, Pro. vulgaris GN3027; 10^6 cells per ml; 37° C., 20 hours; read-out: MIC.
Description: as §1

In the next experiment the test system is Ps. aeruginosa IFO3445. To be noted: Pseudomonas aeruginosa; Ps. aeruginosa IFO3445; 10^6 cells per ml; 37° C., 20 hours; read-out: MIC.
Description: as §1

The test system of another experiment is Ps. aeruginosa S-68. Particulars: Pseudomonas aeruginosa.
Description: as §1

Another experiment deals with St. aureus FDA209P. Particulars: Staphylococcus aureus, FDA209P, 20 h, St. aureus FDA209P; 10^6 cells per ml; 37° C., 20 hours; read-out: MIC.
Description: as §1

The test system of another experiment is E. coli TK-3*. To be noted: Escherichia coli, 20 h, E. coli TK-3, penicillinase-producing; 10^6 cells per ml; read-out: MIC.
Description: as §1
(§2) * Penicillinase-producing bacteria

The test system of a further experiment is Kl. pneumoniae Y-4*. Particulars: Klebsiella pneumoniae, 20 h, Kl. pneumoniae Y-4, penicillinase-producing; 10^6 cells per ml; read-out: MIC.
Description: as §1, §2

The subject of another experiment is Ps. aeruginosa GN3379*. Particulars: Pseudomonas aeruginosa, 20 h; Ps. aeruginosa GN3379, penicillinase-producing; 10^6 cells per ml; read-out: MIC.
Description: as §1, §2

The test system of the next experiment is St. aureus F-137*. To be noted: Staphylococcus aureus, 20 h, St. aureus F-137, penicillinase-producing; 10^6 cells per ml; read-out: MIC.
Description: as §1, §2

For the next experiment, the system named is E. coli GN5482**. To be noted: Escherichia coli, 20 h; E. coli GN5482, cephalospolinase-producing; 10^6 cells per ml; read-out: MIC.
Description: as §1
(§3) ** Cephalospolinase-producing bacteria

The test system of a further experiment is Pro. vulgaris GN76**. To be noted: Proteus vulgaris, 20 h; Pro. vulgaris GN76, cephalospolinase-producing; 10^6 cells per ml; read-out: MIC.
Description: as §1, §3

Another experiment deals with Ps. aeruginosa GN918**. To be noted: Ps. aeruginosa GN918, cephalospolinase-producing, 10^6 cells per ml.
Description: as §1, §3

[1] abbreviates: E. coli NIHJ JC-2, 10^6 cells per ml, 37° C., 20 hours, read-out: MIC.
Where [2] appears, read: S68, Ps. aeruginosa S-68, 10^6 cells per ml, 37° C., 20 hours, read-out: MIC.
Where [3] appears, read: Pseudomonas aeruginosa, 20 h, read-out: MIC.

Values after ≈ are worked out from the molar mass of the structure shown. Like-named read-outs stand apart in the source and are kept apart here.

Results on three compounds are retold here after patent publication US4698352A, “4-oxo-1,4-dihydronicotinic acid derivatives, salts thereof, and antibacterial agents containing the same” (Toyama Chemical Co., Ltd., priority 1982, dated 1987).

Take `O=C(O)c1cn(-c2ccc(O)cc2F)c(C2CC=CCC2)cc1=O` (stereo not drawn): the MIC amounted to 3.13 µg/mL (≈ 9.5 µM) in the experiment with Aci. antitratus A-6; 1.56 µg/mL (≈ 4.74 µM) in the experiment with E. coli NIHJ JC-2 (setting [1]); 0.39 µg/mL (≈ 1.18 µM) in the experiment on E. coli TK-111; 3.13 µg/mL (≈ 9.5 µM) in the experiment on Ent. cloacae IID977; 6.25 µg/mL (≈ 19 µM) with Kl. pneumoniae Y-41; 0.78 µg/mL (≈ 2.37 µM) in the experiment with Kl. pneumoniae Y-50. Further, the MIC in the experiment with Pro. mirabilis T-111 (T111, 10^6 cells per ml, 20 hours, read-out: MIC) was determined as 12.5 µg/mL (≈ 38 µM); in the experiment on Pro. morganii T-216 (T216, 10^6 cells per ml, 20 hours, read-out: MIC), 3.13 µg/mL (≈ 9.5 µM); in the experiment on Pro. vulgaris GN3027, 0.1 µg/mL (≈ 0.304 µM); in the experiment on Ps. aeruginosa IFO3445, 12.5 µg/mL (≈ 38 µM); with Ps. aeruginosa S-68 (setting [2]), 12.5 µg/mL (≈ 38 µM); with St. aureus FDA209P, 0.39 µg/mL (≈ 1.18 µM). Besides, the minimum inhibitory concentration (MIC) with E. coli TK-3* was 3.13 µg/mL (≈ 9.5 µM); with Kl. pneumoniae Y-4*, 6.25 µg/mL (≈ 19 µM); in the experiment with Ps. aeruginosa GN3379* it was 12.5 µg/mL (≈ 38 µM); in the experiment with St. aureus F-137*, 0.39 µg/mL (≈ 1.18 µM); in the experiment on E. coli GN5482** it was 0.39 µg/mL (≈ 1.18 µM); in the experiment with Pro. vulgaris GN76**, 0.78 µg/mL (≈ 2.37 µM). For the same compound, in the experiment on Ps. aeruginosa GN918** (setting [3]), the MIC stood at 1.56 µg/mL (≈ 4.74 µM).

Turning to `Cc1cc(O)ccc1-n1cc(C(=O)O)c(=O)cc1C1CCCCC1` [drawing 12], the MIC in the experiment with Aci. antitratus A-6 came out at 0.78 µg/mL (≈ 2.38 µM); with E. coli NIHJ JC-2, 1.56 µg/mL (≈ 4.77 µM); in the experiment on E. coli TK-111 it was 0.78 µg/mL (≈ 2.38 µM); with Ent. cloacae IID977, 3.13 µg/mL (≈ 9.56 µM); in the experiment with Kl. pneumoniae Y-41, 6.25 µg/mL (≈ 19.1 µM); in the experiment with Kl. pneumoniae Y-50, 1.56 µg/mL (≈ 4.77 µM). For the same compound, the MIC against Pro. mirabilis T-111 (T111, 20 h, 10^6 cells per ml) was found to be 12.5 µg/mL (≈ 38.2 µM); against Pro. morganii T-216 (T216, 20 h, 10^6 cells per ml), 6.25 µg/mL (≈ 19.1 µM); in the experiment with Pro. vulgaris GN3027, 0.2 µg/mL (≈ 0.611 µM); with Ps. aeruginosa IFO3445, 50 µg/mL (≈ 153 µM); in the experiment on Ps. aeruginosa S-68 (setting [2]) it was 50 µg/mL (≈ 153 µM); with St. aureus FDA209P, 0.78 µg/mL (≈ 2.38 µM). The MIC in the experiment on E. coli TK-3* is 3.13 µg/mL (≈ 9.56 µM); in the experiment on Kl. pneumoniae Y-4*, 12.5 µg/mL (≈ 38.2 µM); in the experiment on Ps. aeruginosa GN3379* it was more than 100 µg/mL; in the experiment with St. aureus F-137* it was 0.78 µg/mL (≈ 2.38 µM); in the experiment with E. coli GN5482**, 0.1 µg/mL (≈ 0.305 µM); in the experiment with Pro. vulgaris GN76**, 3.13 µg/mL (≈ 9.56 µM). Besides, the MIC with Ps. aeruginosa GN918** (setting [3]) came out at 3.13 µg/mL (≈ 9.56 µM).

Consider `CC(=O)Oc1ccc(-n2cc(C(=O)OCCN(C)C)c(=O)cc2-c2ccc(N(C)C)cc2)cc1` [drawing 37], for which the MIC amounted to 0.39 µg/mL (≈ 0.841 µM) in the experiment on Aci. antitratus A-6; 0.39 µg/mL (≈ 0.841 µM) in the experiment on E. coli NIHJ JC-2 (setting [1]); 0.2 µg/mL (≈ 0.431 µM) with E. coli TK-111; 1.56 µg/mL (≈ 3.37 µM) with Ent. cloacae IID977; 3.13 µg/mL (≈ 6.75 µM) with Kl. pneumoniae Y-41; 0.78 µg/mL (≈ 1.68 µM) in the experiment on Kl. pneumoniae Y-50. Further, the MIC with Pro. mirabilis T-111 (T111, 20 h, 10^6 cells per ml) stood at 6.25 µg/mL (≈ 13.5 µM); against Pro. morganii T-216 (T216, 20 h, 10^6 cells per ml), 3.13 µg/mL (≈ 6.75 µM); with Pro. vulgaris GN3027, 0.39 µg/mL (≈ 0.841 µM); with Ps. aeruginosa IFO3445 it was 12.5 µg/mL (≈ 27 µM); against Ps. aeruginosa S-68 (S68, 20 h), 6.25 µg/mL (≈ 13.5 µM); in the experiment on St. aureus FDA209P it was 0.39 µg/mL (≈ 0.841 µM). In addition, the MIC was 1.56 µg/mL (≈ 3.37 µM) in the experiment with E. coli TK-3*; 6.25 µg/mL (≈ 13.5 µM) with Kl. pneumoniae Y-4*; 12.5 µg/mL (≈ 27 µM) in the experiment with Ps. aeruginosa GN3379*; 0.39 µg/mL (≈ 0.841 µM) in the experiment on St. aureus F-137*; not above 0.05 µg/mL in the experiment on E. coli GN5482**; 1.56 µg/mL (≈ 3.37 µM) in the experiment on Pro. vulgaris GN76**. In the experiment on Ps. aeruginosa GN918**, the MIC turned out to be 3.13 µg/mL (≈ 6.75 µM).

In general, MIC refers to the lowest concentration that inhibits growth of the organism.
